IC50 data for 13 molecules are collected here from patent publication US7030138B2, “Benzamidine derivatives” (Sankyo Company, Limited, priority 2001, dated 2006).

Where a name gives a salt, the structure may show the parent alone.

Assay [1] deals with T1, bovine trypsin (Bos taurus, UniProt P00760).
T1 construct: purchased Sigma
T1 sequence (P00760 24-246): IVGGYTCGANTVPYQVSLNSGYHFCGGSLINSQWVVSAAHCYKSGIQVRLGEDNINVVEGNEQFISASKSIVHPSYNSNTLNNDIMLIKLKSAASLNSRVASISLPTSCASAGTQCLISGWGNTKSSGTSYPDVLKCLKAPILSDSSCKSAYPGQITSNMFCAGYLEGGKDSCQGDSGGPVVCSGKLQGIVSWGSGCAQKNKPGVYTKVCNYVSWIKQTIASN
The experiment in a line: Determination of anti-trypsin activity (S-2222 coloring substrate, absorbance at 405 nm). The assay is classed as biochemical. Particulars: bovine trypsin 0.25 μg-protein/ml, S-2222 0.4 mM, Tris buffer pH 8.4, room temperature, 5 minutes; read-out: Inhibitory Action against Trypsin Activity (IC50 (nM)). The procedure: Determination of Anti-trypsin Activity
Anti-trypsin activity was determined according to methods described by Taniuchi et al. [Thromb. Haemost., 79, 543 (1998)], which were partially modified. S-2222, a coloring substrate (5 μl, final concentration: 0.4 mM, Daiichi Pure Chemicals Co., Ltd.) and the test compound (5 μl) were mixed with Tris hydrochloride buffered solution (50 mM, 85 μl, pH: 8.4) containing NaCl (0.9%). To this solution, bovine trypsin (5 μl, final concentration: 0.25 μg-protein/ml, Sigma) was added and the reaction was started. In the control group, distilled water was added to the Tris-buffered solution instead of the test compound. The reaction mixture (in total: 0.1 ml) was incubated at room temperature. Optical absorbance was continuously determined at 405 nm with a 96-well microplate reader (Model 550, Biorad) and increase in the absorbance for 5 minutes was calculated as an indicator of trypsin activity. To assess anti-trypsin activities of the test compounds, concentrations of the test compounds to inhibit the trypsin activity by 50% (IC50) were calculated.

Assay [2] deals with T2, human factor-Xa (Homo sapiens, UniProt P00742).
T2 construct: purchased Cosmobio Co., Ltd
The assay can be described thus: Determination of anti-factor Xa activity (S-2222 coloring substrate, absorbance at 405 nm). Type of assay: biochemical. As to conditions: human factor-Xa 0.25 unit/ml, S-2222 0.4 mM, Tris buffer pH 8.4, room temperature, 5 minutes; read-out: Inhibitory Action against Factor Xa Activity (IC50 (nM)). The procedure: Determination of Anti-factor Xa Activity
Anti-factor Xa activity was determined according to methods described by Hara et al. [Thrombo. Haemost., 71, 314 (1994)], which were slightly modified. S-2222, a coloring substrate (0.4 mM, Daiichi Pure Chemicals Co., Ltd.) and the test compounds were mixed in Tris hydrochloride buffered solution (50 mM, pH: 8.4) containing NaCl (0.9%). To this solution, human factor-Xa (0.25 unit/ml, Cosmobio Co., Ltd.) was added and the reaction was started. In the control group, distilled water was added to the Tris-buffered solution instead of the test compound. The reaction mixture (in total: 0.1 ml) was incubated at room temperature for 5 minutes. Optical absorbance of the reaction mixture was continuously determined at 405 nm with a 96-well microplate reader (Model 550, Biorad) and increase in the absorbance for 5 minutes was calculated as an indicator of factor Xa activity. To assess anti-factor Xa activities of the test compounds, concentrations of the test compounds to inhibit the factor Xa activity by 50% (IC50) were calculated.

T2 sequence (P00742 235-488 limits assumed): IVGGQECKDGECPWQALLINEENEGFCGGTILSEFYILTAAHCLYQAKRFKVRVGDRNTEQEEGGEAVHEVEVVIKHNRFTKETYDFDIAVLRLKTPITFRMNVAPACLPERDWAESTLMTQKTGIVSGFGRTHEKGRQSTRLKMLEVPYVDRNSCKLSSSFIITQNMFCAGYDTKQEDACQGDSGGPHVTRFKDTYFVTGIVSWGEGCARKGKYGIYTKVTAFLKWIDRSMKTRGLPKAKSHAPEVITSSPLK
T2 sequence (P00742 41-179 partner limits assumed): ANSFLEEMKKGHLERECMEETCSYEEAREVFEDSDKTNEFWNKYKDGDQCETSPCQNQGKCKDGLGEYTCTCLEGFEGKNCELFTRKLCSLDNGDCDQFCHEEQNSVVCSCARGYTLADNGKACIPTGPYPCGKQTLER

For orientation: IC50 means the concentration that gives 50% inhibition. On to `N=C(N)c1cccc(/C=C/CN(c2ccc(OC3CCN(C4=NCCO4)CC3)c(Cl)c2)S(=O)(=O)CC(=O)O)c1` [Example 89, N-[3-(3-Amidinophenyl)-2-(E)-propenyl]-N-[3-chloro-4-[1-(4,5-dihydrooxazol-2-yl)piperidin-4-yloxy]phenyl]sulfamoylacetic acid dihydrochloride], for which the IC50 was found to be 2000 nM in assay [1] and 11 nM in assay [2].

`CCOC(=O)CS(=O)(=O)N(C/C=C/c1cccc(C(=N)N)c1)c1ccc(OC2CCN(C=N)CC2)c(Cl)c1` [Example 47, Ethyl N-[3-(3-amidinophenyl)-2-(E)-propenyl]-N-[3-chloro-4-[(1-formimidoylpiperidin-4-yloxy)phenyl]sulfamoylacetatedihydrochloride]: the IC50 was determined as 790 nM in assay [1] and 6.1 nM in assay [2].

In the case of `CCOC(=O)CS(=O)(=O)N(C/C=C/c1cccc(C(=N)N)c1)c1ccc(OC2CCN(c3ccncc3)CC2)c(Cl)c1` [Example 27, Ethyl N-[3-(3-amidinophenyl)-2-(E)-propenyl]-N-[3-chloro-4-[1-(4-pyridyl)piperidin-4-yloxy]phenyl]sulfamoylacetate dihydrochloride], the IC50 in assay [1] worked out at 540 nM; in assay [2], 7.9 nM.

For the molecule `CC/N=C/N1CCC(Oc2ccc(N(C/C=C/c3cccc(C(=N)N)c3)S(=O)(=O)CC(=O)O)cc2Cl)CC1` [Example 87, N-[3-(3-Amidinophenyl)-2-(E)-propenyl]-N-[3-chloro-4-[1-(N-ethylformimidoyl)piperidin-4-yloxy]phenyl]sulfamoylacetic acid dihydrochloride], the concentration for half-maximal inhibition (IC50) was 3500 nM in assay [1] and 13 nM in assay [2].

`N=C(N)c1cccc(/C=C/CN(c2ccc(OC3CCN(C4=NCCC4)CC3)c(C(N)=O)c2)S(=O)(=O)CC(=O)O)c1` [Example 72, N-[3-(3-Amidinophenyl)-2-(E)-propenyl]-N-[3-carbamoyl-4-[1-(4,5-dihydro-3H-pyrrol-2-yl)piperidin-4-yloxy]phenyl]sulfamoylacetic acid dihydrochloride]: the concentration for half-maximal inhibition (IC50) in assay [1] turned out to be 4400 nM; in assay [2], 9.8 nM.

In the case of `CCC(=N)N1CCC(Oc2ccc(N(C/C=C/c3cccc(C(=N)N)c3)S(=O)(=O)CC(=O)O)cc2Cl)CC1` [Example 50, N-[3-(3-Amidinophenyl)-2-(E)-propenyl]-N-[3-chloro-4-[1-(1-iminopropyl)piperidin-4-yloxy]phenyl]sulfamoylacetic acid dihydrochloride], the IC50 in assay [1] turned out to be 1200 nM; in assay [2], 6.3 nM.

Regarding `Cc1cc(N(C/C=C/c2cccc(C(=N)N)c2)S(=O)(=O)CC(=O)O)ccc1OC1CCN(C2=NCCC2)CC1` [Example 66, N-[3-(3-Amidinophenyl)-2-(E)-propenyl]-N-[4-[1-(4,5-dihydro-3H-pyrrol-2-yl)piperidin-4-yloxy-]-3-methylphenyl]sulfamoylacetic acid dihydrochloride], the IC50 is 5600 nM in assay [1] and 8.3 nM in assay [2].

With `N=C(N)c1cccc(/C=C/CN(c2ccc(OC3CCN4CCCC4C3)c(Cl)c2)S(=O)(=O)CC(=O)O)c1` (centres unmarked) [Example 42, dihydrochloride], the results for the IC50 in assay [1] and in assay [2] were 7300 nM and 11 nM, respectively.

Turning to `CCOC(=O)CS(=O)(=O)N(C/C=C/c1cccc(C(=N)N)c1)c1ccc(OC2CCN(C3=NCCC3)CC2)c(C(F)(F)F)c1` [Example 77, Ethyl N-[3-(3-amidinophenyl)-2-(E)-propenyl]-N-[4-[1-(4,5-dihydro-3H-pyrrol-2-yl)piperidin-4-yloxy]-3-trifluoromethylphenyl]sulfamoylacetate dihydrochloride], the IC50 in assay [1] is 3700 nM; in assay [2], 12 nM.

For `N=C(N)c1cccc(/C=C/CN(c2ccc(OC3CCN(c4ccncc4)CC3)c(Cl)c2)S(=O)(=O)CC(=O)O)c1` [Example 28, N-[3-(3-Amidinophenyl)-2-(E)-propenyl]-N-[3-chloro-4-[1-(4-pyridyl)piperidin-4-yloxy]phenyl]sulfamoylacetic acid dihydrochloride], the IC50 in assay [1] was determined as 650 nM; in assay [2] it was 6.4 nM.

Regarding `CCOC(=O)CS(=O)(=O)N(C/C=C/c1cccc(C(=N)N)c1)c1ccc(OC2CCN(C3=NCCC3)CC2)c(Cl)c1` [Example 53, Ethyl N-[3-(3-amidinophenyl)-2-(E)-propenyl]-N-[3-chloro-4-[1-(4,5-dihydro-3H-pyrrol-2-yl)piperidin-4-yloxy]phenyl]sulfamoylacetate dihydrochloride], the figures for the IC50 in assay [1] and in assay [2] were 2100 nM and 6.8 nM, respectively.

For `CCOC(=O)CS(=O)(=O)N(C/C=C/c1cccc(C(=N)N)c1)c1ccc(OC2CCN(C(=N)CC)CC2)c(Cl)c1` [Example 49, Ethyl N-[3-(3-amidinophenyl)-2-(E)-propenyl]-N-[3-chloro-4-[1-(1-iminopropyl)piperidin-4-yloxy]phenyl-1 sulfamoylacetatedihydrochloride], the half-maximal inhibitory concentration (IC50) in assay [1] came to 860 nM; in assay [2] it was 6.8 nM.

For `N=C(N)c1cccc(/C=C/CN(c2ccc(OC3CCN(C4=NCCC4)CC3)cc2)S(=O)(=O)CC(=O)O)c1` [Example 60, N-[3-(3-Amidinophenyl)-2-(E)-propenyl]-N-[4-[1-(4,5-dihydro-3H-pyrrol-2-yl)piperidin-4-yloxy]phenyl]sulfamoylacetic acid dihydrochloride], the half-inhibitory concentration (IC50) worked out at 3100 nM in assay [1] and 14 nM in assay [2].
